# Laboratory results from patent publication US20040022842A1, “Liposome preparations containing oxaliplatin” (Mebiopharm Co., Ltd., priority 2002, published 2004).
# System: Colon 26 cells
# Assay: Cytotoxicity of oxaliplatin (L-OHP) liposomes against tumor cells, WST-1 assay (Example 7), Colon 26
# Type: cell-based
# Conditions: Colon 26 and AsPC-1 cells; comparison of L-OHP solution and liposome preparations
# Protocol: Colon 26 cells and AsPC-1 cells were inoculated on a 96-well plate at 5×10^3 cells per well and pre-incubated with 5% CO2 overnight.
# The cells were incubated at 37° C. under 5% CO2 for 4 hours. The test solutions were removed, and the incubation was continued for an additional 2 days, at which time the number of living cells was counted. Cell viability was determined according to the WST-1 assay.
# According to the WST-1 assay, the assay solution contained 5 mmol/L WST-1 reagent (10 μL); 20 mmol/L HEPES; 1-methoxy-PMS at 0.2 mmol/L, at pH 7.4. This solution was added to each well, mixed thoroughly, and incubated in a CO2 incubator for 2 hours to allow for color development. The absorbance was then measured on a plate reader at 400-450 nm, with a reference wavelength of >600 nm.
smiles,measurement,value
"O=C1[O][Pt]2([NH]C3CCCCC3[NH]2)[O]C1=O [L-OHP solution, Oxaliplatin]",relative cytotoxicity in words,showed the highest toxicity
